Laboratory results reported in patent US4330527A, “Wound treatment agent” (priority 1979, dated 1982).
Entries after “also recorded” stand apart in the source; their conditions may differ.

Experiments:
NPT [1] = format: biochemical, Clostridium perfringens ATCC 21510
[2] = test system: granulation tissue in P.V.H.-sponge; set-up: species or system rats (Wistar strain, male); conditions: rat, in vivo
NPT [3] = format: biochemical, Clostridium perfringens ATCC 21510; remark: listed apart in the source
5'-nucleotidase = test: Effects of metal ions and other chemical agents on nucleotidase activity; format: biochemical
epidermis (dorsal skin) = test: Experiment 9: epidermization effect on dermatome-peeled dorsal skin; format: in vivo, rabbit; conditions: further examination
epidermis = conditions: literature; cited from earlier work
[4] = test system: collagen in P.V.H.-sponge; test: Experiment 6: weight of collagen (hydroxyproline) in the buried sponge; format: in vivo, rats; conditions: for Hydroxyproline: n = 8; for Hydroxyproline, % of control: control = 100%

3-phosphoglycerophosphate
action as phosphate donor (NPT [1]): not observed

CC(=O)OCC(=O)[C@@]1(O)CC[C@H]2[C@@H]3CCC4=CC(=O)C=C[C@]4(C)[C@H]3[C@@H](O)C[C@@]21C [Prednisolone acetate]
(1) Wet weight [2]: 225 ± 58.9 mg
(1)-(2) Liquid content [2]: 167.4 ± 52.2 mg
(2) - sponge weight, Solid content [2]: 22.6 ± 9.6 mg
(2) Dry weight [2]: 57.8 ± 9.9 mg
Dry weight, % [2]: 91.2%
Liquid content, % [2]: 68.4%
Solid content, % [2]: 80.7%
Wet weight, % [2]: 73.0%
effect on weights / newly grown granulation tissue (in words) [2]: the dry weight, wet weight, quantity of exudate and weight of newly grown granulation tissue all fall below those with the control

Nc1ncnc2c1ncn2[C@@H]1O[C@H](COP(=O)(O)OP(=O)(O)OP(=O)(O)O)[C@@H](O)[C@H]1O [adenosine triphosphate]
action as phosphate donor (NPT [1]): not observed

CN(CC(=O)O)C(=N)NP(=O)(O)O [creatine phosphate]
action as phosphate donor (NPT [1]): not observed

Nc1ccn([C@@H]2O[C@H](CO)[C@@H](O)[C@H]2O)c(=O)n1 [cytidine]
action as phosphate acceptor (NPT [1]): phosphate acceptor

Nc1ncnc2c1ncn2[C@H]1C[C@H](O)[C@@H](COP(=O)(O)OP(=O)(O)OP(=O)(O)O)O1 [deoxyadenosine triphosphate]
action as phosphate donor (NPT [1]): not observed

Nc1ccn([C@H]2C[C@H](O)[C@@H](CO)O2)c(=O)n1 [deoxycytidine]
action as phosphate acceptor (NPT [1]): phosphate acceptor

O=c1ccn([C@H]2C[C@H](O)[C@@H](CO)O2)c(=O)[nH]1 [deoxyuridine]
action as phosphate acceptor (NPT [1]): phosphate acceptor

O=P(O)(O)OC[C@H]1OC(O)[C@H](O)[C@@H](O)[C@@H]1O (some centres unmarked) [glucose-6-phosphate]
action as phosphate donor (NPT [1]): not observed

O=C(O)c1cc[c]([Hg][Cl])cc1 [p-chloromercuribenzoic acid]
effect on NPT activity (NPT [3]): neither of them are inhibited
effect on nucleotidase activity (5'-nucleotidase): neither of them are inhibited

Cc1cn([C@H]2C[C@H](O)[C@@H](CO)O2)c(=O)[nH]c1=O [thymidine]
action as phosphate acceptor (NPT [1]): phosphate acceptor

O=c1ccn([C@@H]2O[C@H](CO)[C@@H](O)[C@H]2O)c(=O)[nH]1 [uridine]
action as phosphate acceptor (NPT [1]): lowest activity as the phosphate acceptor

[O]=[Zn] [zinc oxide]
capability of epidermization (in words) (epidermis (dorsal skin)): synergistic effect with GF-70 to stimulate the epidermization

O=P(O)(O)OCC(O)CO (stereo not drawn) [α-glycerophosphate]
action as phosphate donor (NPT [1]): not observed

vitamin A
effect on skin tissue / DNA synthesis in epidermis (epidermis): stimulates synthesis of DNA in the epidermis; also recorded: affect the growth and differentiation of the skin tissue

B1: Albumin: egg albumin as the control (protein, UniProt P01012 2-386, looked up)
Ovalbumin: GSIGAASMEFCFDVFKELKVHHANENIFYCPIAIMSALAMVYLGAKDSTRTQINKVVRFDKLPGFGDSIEAQCGTSVNVHSSLRDILNQITKPNDVYSFSLASRLYAEERYPILPEYLQCVKELYRGGLEPINFQTAADQARELINSWVESQTNGIIRNVLQPSSVDSQTAMVLVNAIVFKGLWEKAFKDEDTQAMPFRVTEQESKPVQMMYQIGLFRVASMASEKMKILELPFASGTMSMLVLLPDEVSGLEQLESIINFEKLTEWTSSNVMEERKIKVYLPRMKMEEKYNLTSVLMAMGITDVFSSSANLSGISSAESLKISQAVHAAHAEINEAGREVVGSAEAGVDAASVSEEFRADHPFLFCIKHIATNAVLFFGRCVSP
weight of collagen (in words) ([4]; 4th and 7th days, vs control): no significant difference
Hydroxyproline ([4]; 4 days after burying): 132.3 ± 18.0 μg/sponge
Hydroxyproline, % of control ([4]; 4 days after burying): 105%
Hydroxyproline ([4]; 7 days after burying): 331.7 ± 18.8 μg/sponge
Hydroxyproline, % of control ([4]; 7 days after burying): 146%
